Experimental data taken from patent US6573244B1 (priority 1999, dated 2003).
Ends that are not written are not given here.

How the values were obtained:
[1] = rat, in vivo, ip
[2] = target: BttxB (Clostridium botulinum, UniProt P10844); experiment: biochemical
[3] = test system: Bttxs; conditions: cited from earlier work
[4] = target: T1, Botulinum toxin B, P10844; experiment: cell-based or functional assay
T1 chain: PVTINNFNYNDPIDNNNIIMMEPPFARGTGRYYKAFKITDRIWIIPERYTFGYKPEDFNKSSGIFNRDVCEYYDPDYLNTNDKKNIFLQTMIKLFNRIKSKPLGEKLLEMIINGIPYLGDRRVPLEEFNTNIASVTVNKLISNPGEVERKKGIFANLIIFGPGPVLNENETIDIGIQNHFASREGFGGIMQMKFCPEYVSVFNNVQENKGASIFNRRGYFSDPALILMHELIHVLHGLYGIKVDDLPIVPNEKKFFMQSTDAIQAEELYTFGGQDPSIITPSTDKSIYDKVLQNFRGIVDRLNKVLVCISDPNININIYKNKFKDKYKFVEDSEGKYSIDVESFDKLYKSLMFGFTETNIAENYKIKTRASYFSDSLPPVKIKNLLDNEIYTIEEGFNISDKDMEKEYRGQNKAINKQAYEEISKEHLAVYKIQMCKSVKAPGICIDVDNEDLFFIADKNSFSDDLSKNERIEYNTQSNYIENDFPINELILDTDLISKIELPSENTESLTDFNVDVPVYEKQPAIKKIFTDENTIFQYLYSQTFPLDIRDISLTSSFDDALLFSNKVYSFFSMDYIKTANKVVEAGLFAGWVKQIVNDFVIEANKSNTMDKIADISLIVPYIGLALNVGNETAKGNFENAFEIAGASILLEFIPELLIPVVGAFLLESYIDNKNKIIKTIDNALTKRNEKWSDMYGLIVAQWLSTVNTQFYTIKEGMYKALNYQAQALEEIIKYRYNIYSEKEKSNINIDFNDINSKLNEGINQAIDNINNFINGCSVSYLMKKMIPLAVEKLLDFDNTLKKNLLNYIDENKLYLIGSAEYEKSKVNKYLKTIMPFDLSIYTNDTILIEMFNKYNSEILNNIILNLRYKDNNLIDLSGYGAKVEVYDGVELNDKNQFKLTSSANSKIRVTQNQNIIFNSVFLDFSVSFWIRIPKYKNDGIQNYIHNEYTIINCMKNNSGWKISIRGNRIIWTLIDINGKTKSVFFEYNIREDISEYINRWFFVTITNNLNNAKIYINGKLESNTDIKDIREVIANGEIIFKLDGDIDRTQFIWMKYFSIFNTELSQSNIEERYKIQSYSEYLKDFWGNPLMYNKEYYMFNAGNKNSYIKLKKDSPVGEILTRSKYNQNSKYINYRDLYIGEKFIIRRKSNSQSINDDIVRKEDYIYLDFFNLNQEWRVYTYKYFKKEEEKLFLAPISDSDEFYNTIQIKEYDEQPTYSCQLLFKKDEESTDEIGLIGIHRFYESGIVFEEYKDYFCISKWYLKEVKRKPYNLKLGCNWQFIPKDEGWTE

In the case of CC(C)C[C@H](NC(=O)CNC(=O)[C@H](C)NC(=O)[C@H](CCCNC(=N)N)NC(=O)[C@H](CO)NC(=O)[C@H](CO)NC(=O)[C@H](CCCNC(=N)N)NC(=O)[C@@H](NC(=O)[C@H](CCCCN)NC(=O)[C@H](C)NC(=O)[C@H](CCCCN)NC(=O)[C@H](C)NC(=O)[C@H](CCCNC(=N)N)NC(=O)[C@@H](NC(=O)[C@H](CCCCN)NC(=O)CNC(=O)CNC(=O)[C@H](CCC(N)=O)NC(=O)[C@H](CCCCN)NC(=O)CNC(=O)[C@H](CCCNC(=N)N)NC(=O)CNC(=O)[C@H](C)N)C(C)C)[C@@H](C)O)C(=O)N[C@@H](CCC(N)=O)C(=O)N[C@@H](Cc1ccccc1)C(=O)N1CCC[C@H]1C(=O)N[C@H](C(=O)NCC(=O)N[C@@H](CCCNC(=N)N)C(=O)N[C@H](C(=O)N[C@@H](Cc1c[nH]cn1)C(=O)N[C@@H](CCCNC(=N)N)C(=O)N[C@@H](CC(C)C)C(=O)N[C@@H](CC(C)C)C(=O)N[C@@H](CCCNC(=N)N)C(=O)N[C@@H](CCCCN)C(=O)NCC(=O)N[C@@H](CC(N)=O)C(=O)N[C@@H](Cc1ccc(O)cc1)C(=O)O)C(C)C)C(C)C [Buforin I], the “plateau (time to maximal-plateau level)” value [1] is reported as no more than 40 min, the “time the maximal-plateau level was maintained” value [1] is reported as “up to 4 h” and the “time to reach ½ the absorbed maximal value” [1] is reported as 7.7 min. The “uptake into the blood stream, in words” value [1] was “rapid uptake”, the IC50 [2] was 1 µM and the “mode of inhibition of BttxB activity” value [2] was “dose-dependently and competitively inhibits”. The “substrate of BttxB or not” value [2] was “not to be a substrate”.

For C[C@H](CS)C(=O)N1CCC[C@H]1C(=O)O [captopril], the “inhibition of Bttxs, in words” value [3] is listed as “not effective inhibitors”.

In the case of CC(C)C[C@H](NP(=O)(O)O[C@@H]1O[C@@H](C)[C@H](O)[C@@H](O)[C@H]1O)C(=O)N[C@@H](Cc1c[nH]c2ccccc12)C(=O)O [phosphoramidon], the “inhibition of Bttxs, in words” value [3] is listed as “not effective inhibitors”.

With “AGRGKQGGKVRAKAKTRSSRAGLQFPVGRVHRLLRK [Peptide 36]” the “substrate of BttxB or not” value [2] was “not substrates”.

For ELDDRADALQ [Peptide V2], the “inhibition of Bttxs, in words” value [3] is listed as “found to inhibit Bttx activity”.

In the case of RPKPQQFFGLM [Substance P], the “inhibition of BttxB, in words” value [2] is reported as “weak inhibitor” and the “substrate of BttxB or not” value [2] is reported as “not a substrate”.

For TRSRAKGLQFPGLLVHRLLRKGNY [Peptide 05P], the IC50 [2] was less than 200 µM.

With TRSSRAGLQFPVGRVHRLLRKGNY [Peptide 24] the “substrate of BttxB or not” value [2] was “not substrates”.

In the case of TRSRAKGLQFPGLLVHRLLRKGNY (modifications not checked) [Peptide 05P], the inhibition of botulinum B proteolytic activity [4] is reported as less than 200 µM and the potency of inhibition relative to Substance P [4] is reported as less than 4 fold.
